# Experimental data taken from patent US11419806B2, “Prebiotic oral care methods using a saccharide” (Colgate-Palmolive Company, priority 2013, dated 2022).
# Experiments:
# Experiment in all cases: Twenty-four hour optical density growth in BHI
# Assay type in all cases: cell-based
# Actinomyces naeslundii = conditions: A naeslundii
# Protocol: (§1) The extent of growth of the tested bacteria in response to selected saccharides (myo-inositol, D-lactitol, D-turanose and N-acetyl-D-mannosamine) was investigated by setting up growth curves in a nutritionally rich medium (brain heart infusion broth (BHI), Oxoid), over 24 hours. Late exponential growth phase liquid cultures were prepared by transferring the respective bacterium from blood agar plates to BHI and overnight incubation at 37° C. in an anaerobic atmosphere for A. viscosus, V. parvula, F. nucleatum, P. gingivalis, P. intermedia, T. forsythia, A. naeslundii, and C. sputigena, and in a 5% CO2 environment for S. salivarius, S. sanguinis, S. mitis, A. actinomycetemcomitans, S. mutans, S. sobrinus and S. gordonii. Overnight cultures were transferred to BHI and adjusted to a concentration of 1×10^7 CFU/ml (colony forming units per ml) by measuring the optical density at 600 nm (OD600) (BioRad SmartSpec 3000). For each strain, 200 μl of the bacterial suspension was added to a 96-well plate containing 20 μl of the respective saccharides. Final concentrations of the saccharides were set to 5, 10, 20 and 25 μmol/ml. […] Plates were incubated as previously described.
# (§2) For each combination of bacterium/saccharide, and for each of their respective controls (i.e. the particular bacterium in the nutritionally rich medium with no saccharide), the optical density was measured at 630 nm (OD630) at 0 h and 24 h (Thermo Scientific Multiskan Ascent). Additionally, the OD630 for combinations of bacterium/saccharides grown in a 5% CO2 environment were also measured every hour between 0 h and 9 h.
# (§3) The experiment was carried out on three different days (thus providing 3 biological replicas) and on each day the experiment was carried out in quadruple (thus providing 4 technical replicas) for each combination of bacterium with saccharide and for each control. For each day and for each combination, the average (mean) of the values obtained (as detailed above) for the four technical replicas was calculated to provide a single value for each combination on each day. The values shown in Tables 5a,b to 6a,b, below, are the average (mean) of the three single values obtained for each combination of bacterium with saccharide.
# Veillonella parvula = conditions: V parvula
# Protocol: as §1, §2, §3
# S. sanguinis = system: S. sanguinis
# Protocol: as §1, §2, §3
# Streptococcus mitis = conditions: S mitis
# Protocol: as §1, §2, §3
# Actinomyces viscosus = conditions: A viscosus
# Protocol: as §1, §2, §3
# Fusobacterium nucleatum = conditions: F nucleatum
# Protocol: as §1, §2, §3
# Streptococcus gordonii = conditions: S gordonii
# Protocol: as §1, §2, §3
# Tannerella forsythia = conditions: T forsythia
# Protocol: as §1, §2, §3
# Streptococcus salivarius = conditions: S salivarius
# Protocol: as §1, §2, §3
# Streptococcus sobrinus = conditions: S sobrinus
# Protocol: as §1, §2, §3
# Capnocytophaga sputigena = conditions: C sputigena
# Protocol: as §1, §2, §3
# Streptococcus mutans = conditions: for extent of growth: maximal OD630 over 24 hr divided by maximal OD of control (control = 1): S mutans
# Protocol: as §1, §2, §3
# [1] = system: Aggregatibacter actinomycetemcomitans; conditions: A actinomycetemcomitans
# Protocol: as §1, §2, §3
compound,measurement,setting,value
"OC[C@@H](O)[C@@H](O[C@H]1O[C@H](CO)[C@H](O)[C@H](O)[C@H]1O)[C@H](O)[C@@H](O)CO [D-Lactitol, 4-O-α-D-galactopyranosyl-D-glucitol]",extent of growth: maximal OD630 over 24 hr divided by maximal OD of control (control = 1),Actinomyces naeslundii; 5 μmol/ml,1.0156
same,extent of growth: maximal OD630 over 24 hr divided by maximal OD of control (control = 1),Actinomyces naeslundii; 10 μmol/ml,1.0334
same,extent of growth: maximal OD630 over 24 hr divided by maximal OD of control (control = 1),Actinomyces naeslundii; 20 μmol/ml,1.0688
same,extent of growth: maximal OD630 over 24 hr divided by maximal OD of control (control = 1),Actinomyces naeslundii; 25 μmol/ml,1.0686
same,extent of growth: maximal OD630 over 24 hr divided by maximal OD of control (control = 1),Veillonella parvula; 5 μmol/ml,0.8722
same,extent of growth: maximal OD630 over 24 hr divided by maximal OD of control (control = 1),Veillonella parvula; 10 μmol/ml,0.8854
same,extent of growth: maximal OD630 over 24 hr divided by maximal OD of control (control = 1),Veillonella parvula; 20 μmol/ml,0.8909
same,extent of growth: maximal OD630 over 24 hr divided by maximal OD of control (control = 1),Veillonella parvula; 25 μmol/ml,0.9054
same,extent of growth: maximal OD630 over 24 hr divided by maximal OD of control (control = 1),S. sanguinis; 5 μmol/ml,0.8901
same,extent of growth: maximal OD630 over 24 hr divided by maximal OD of control (control = 1),S. sanguinis; 10 μmol/ml,0.9323
same,extent of growth: maximal OD630 over 24 hr divided by maximal OD of control (control = 1),S. sanguinis; 20 μmol/ml,0.9356
same,extent of growth: maximal OD630 over 24 hr divided by maximal OD of control (control = 1),S. sanguinis; 25 μmol/ml,0.9393
same,extent of growth: maximal OD630 over 24 hr divided by maximal OD of control (control = 1),Streptococcus mitis; 5 μmol/ml,0.8694
same,extent of growth: maximal OD630 over 24 hr divided by maximal OD of control (control = 1),Streptococcus mitis; 10 μmol/ml,0.9020
same,extent of growth: maximal OD630 over 24 hr divided by maximal OD of control (control = 1),Streptococcus mitis; 20 μmol/ml,0.9151
same,extent of growth: maximal OD630 over 24 hr divided by maximal OD of control (control = 1),Streptococcus mitis; 25 μmol/ml,0.8839
same,extent of growth: maximal OD630 over 24 hr divided by maximal OD of control (control = 1),Actinomyces viscosus; 5 μmol/ml,0.8614
same,extent of growth: maximal OD630 over 24 hr divided by maximal OD of control (control = 1),Actinomyces viscosus; 10 μmol/ml,0.9554
same,extent of growth: maximal OD630 over 24 hr divided by maximal OD of control (control = 1),Actinomyces viscosus; 20 μmol/ml,1.0275
same,extent of growth: maximal OD630 over 24 hr divided by maximal OD of control (control = 1),Actinomyces viscosus; 25 μmol/ml,1.0300
same,extent of growth: maximal OD630 over 24 hr divided by maximal OD of control (control = 1),Fusobacterium nucleatum; 5 μmol/ml,0.9876
same,extent of growth: maximal OD630 over 24 hr divided by maximal OD of control (control = 1),Fusobacterium nucleatum; 10 μmol/ml,0.9482
same,extent of growth: maximal OD630 over 24 hr divided by maximal OD of control (control = 1),Fusobacterium nucleatum; 20 μmol/ml,0.9034
same,extent of growth: maximal OD630 over 24 hr divided by maximal OD of control (control = 1),Fusobacterium nucleatum; 25 μmol/ml,0.8805
same,extent of growth: maximal OD630 over 24 hr divided by maximal OD of control (control = 1),Streptococcus gordonii; 5 μmol/ml,0.9828
same,extent of growth: maximal OD630 over 24 hr divided by maximal OD of control (control = 1),Streptococcus gordonii; 10 μmol/ml,0.9945
same,extent of growth: maximal OD630 over 24 hr divided by maximal OD of control (control = 1),Streptococcus gordonii; 20 μmol/ml,0.9931
same,extent of growth: maximal OD630 over 24 hr divided by maximal OD of control (control = 1),Streptococcus gordonii; 25 μmol/ml,1.0101
same,extent of growth: maximal OD630 over 24 hr divided by maximal OD of control (control = 1),Tannerella forsythia; 5 μmol/ml,0.9351
same,extent of growth: maximal OD630 over 24 hr divided by maximal OD of control (control = 1),Tannerella forsythia; 10 μmol/ml,0.9434
same,extent of growth: maximal OD630 over 24 hr divided by maximal OD of control (control = 1),Tannerella forsythia; 20 μmol/ml,0.9426
same,extent of growth: maximal OD630 over 24 hr divided by maximal OD of control (control = 1),Tannerella forsythia; 25 μmol/ml,0.9367
same,extent of growth: maximal OD630 over 24 hr divided by maximal OD of control (control = 1),Streptococcus salivarius; 5 μmol/ml,1.1349
same,extent of growth: maximal OD630 over 24 hr divided by maximal OD of control (control = 1),Streptococcus salivarius; 10 μmol/ml,1.3489
same,extent of growth: maximal OD630 over 24 hr divided by maximal OD of control (control = 1),Streptococcus salivarius; 20 μmol/ml,1.3431
same,extent of growth: maximal OD630 over 24 hr divided by maximal OD of control (control = 1),Streptococcus salivarius; 25 μmol/ml,1.3159
same,extent of growth: maximal OD630 over 24 hr divided by maximal OD of control (control = 1),Streptococcus sobrinus; 5 μmol/ml,1.0650
same,extent of growth: maximal OD630 over 24 hr divided by maximal OD of control (control = 1),Streptococcus sobrinus; 10 μmol/ml,1.0189
same,extent of growth: maximal OD630 over 24 hr divided by maximal OD of control (control = 1),Streptococcus sobrinus; 20 μmol/ml,1.0335
same,extent of growth: maximal OD630 over 24 hr divided by maximal OD of control (control = 1),Streptococcus sobrinus; 25 μmol/ml,1.0163
same,extent of growth: maximal OD630 over 24 hr divided by maximal OD of control (control = 1),Capnocytophaga sputigena; 5 μmol/ml,0.8996
same,extent of growth: maximal OD630 over 24 hr divided by maximal OD of control (control = 1),Capnocytophaga sputigena; 10 μmol/ml,0.8742
same,extent of growth: maximal OD630 over 24 hr divided by maximal OD of control (control = 1),Capnocytophaga sputigena; 20 μmol/ml,0.8416
same,extent of growth: maximal OD630 over 24 hr divided by maximal OD of control (control = 1),Capnocytophaga sputigena; 25 μmol/ml,0.8337
same,stimulation of growth of S. mutans,Streptococcus mutans; Example 2,does not stimulate growth
same,extent of growth: maximal OD630 over 24 hr divided by maximal OD of control (control = 1),Streptococcus mutans; 5 μmol/ml,0.9466
same,extent of growth: maximal OD630 over 24 hr divided by maximal OD of control (control = 1),Streptococcus mutans; 10 μmol/ml,0.9230
same,extent of growth: maximal OD630 over 24 hr divided by maximal OD of control (control = 1),Streptococcus mutans; 20 μmol/ml,0.9036
same,extent of growth: maximal OD630 over 24 hr divided by maximal OD of control (control = 1),Streptococcus mutans; 25 μmol/ml,0.9149
same,extent of growth: maximal OD630 over 24 hr divided by maximal OD of control (control = 1),[1]; 5 μmol/ml,0.7044
same,extent of growth: maximal OD630 over 24 hr divided by maximal OD of control (control = 1),[1]; 10 μmol/ml,0.7052
same,extent of growth: maximal OD630 over 24 hr divided by maximal OD of control (control = 1),[1]; 20 μmol/ml,0.6952
same,extent of growth: maximal OD630 over 24 hr divided by maximal OD of control (control = 1),[1]; 25 μmol/ml,0.7095
